From ChEMBL document CHEMBL1126350, “Phosphonoethylphenylalanine derivatives as novel antagonists of non-NMDA ionotropic glutamate receptors” (Bioorg Med Chem Lett, 1992)

Key:
Assay type in all cases: functional
[1] = test system: Mus musculus; experiment: Compound was tested for its ability to inhibit pentylenetetrazole-induced seizures in male CF-1 mice by i.c.v. administration
[2] = species on record: Rattus norvegicus; experiment: The compound was tested for its ability to inhibit AMPA-induced currents in rat brain mRNA-injected xenopus oocytes
[3] = species on record: Rattus norvegicus; experiment: Inhibition of kainic acid (KA)-induced currents in rat brain mRNA-injected xenopus oocytes
[4] = test system: Mus musculus; experiment: Compound was tested for its ability to inhibit pentylenetetrazole-induced seizures in male CF-1 mice by i.p. administration; conditions: ip
[5] = species on record: Rattus norvegicus; experiment: Compound was tested against kainic acid-induced neuronal damage in rat striatum, as assessed by preventing reduction in choline acetyltransferase (ChAT) activity; design: scale not given: the % may be the effect or the level left
[6] = species on record: Rattus norvegicus; experiment: Compound was tested against kainic acid-induced neuronal damage in rat striatum, as assessed by preventing reduction in glutamate decarboxylase GAD activity; design: scale not given: the % may be the effect or the level left

| Compound | Ki [2] | Ki [3] | further results |
| --- | --- | --- | --- |
| O=C(O)C1CN(CCCP(=O)(O)O)CCN1 (stereo not given) | – | – | ED50 [1]: 0.15 nmol |
| Cc1cc(C)c(CCP(=O)(O)O)c(C[C@H](N)C(=O)O)c1 | – | – | ED50 [1]: 0.3 nmol; ED50 [4]: 111 mg/kg |
| Cc1ccc(CCP(=O)(O)O)c(C[C@H](N)C(=O)O)c1 | – | – | ED50 [1]: 0.58 nmol; ED50 [4]: 124 mg/kg |
| NC(Cc1cc(C2CCCCC2)ccc1CCP(=O)(O)O)C(=O)O (stereo not given) | – | 139 µM | – |
| Cc1cccc(CCP(=O)(O)O)c1CC(N)C(=O)O (stereo not given) | – | > 100 µM | – |
| Cc1cccc(CC(N)C(=O)O)c1CCP(=O)(O)O (stereo not given) | – | > 100 µM | – |
| Cc1ccc(CC(N)C(=O)O)c(CCP(=O)(O)O)c1 (stereo not given) | – | > 100 µM | – |
| NC(Cc1cccc(-c2ccccc2)c1CCP(=O)(O)O)C(=O)O (stereo not given) | – | 83 µM | – |
| NC(Cc1cc(-c2ccccc2)ccc1CCP(=O)(O)O)C(=O)O (stereo not given) | – | 76 µM | – |
| C=C(C)[C@H]1CN[C@H](C(=O)O)[C@H]1CC(=O)O [KAINIC ACID] | – | – | Activity [5]: 32%; Activity [6]: 45% |

Further lines, with some results ahead:

| Ki [2] | Ki [3] | Compound | further results |
| --- | --- | --- | --- |
| 61 µM | 10 µM | NC(Cc1cc(Br)ccc1CCP(=O)(O)O)C(=O)O (stereo not given) | – |
| 13 µM | 11 µM | Cc1ccc(CCP(=O)(O)O)c(CC(N)C(=O)O)c1 (stereo not given) | – |
| 48 µM | 15 µM | NC(Cc1cc(Cl)ccc1CCP(=O)(O)O)C(=O)O (stereo not given) | – |
| – | 29 µM | CC(C)(C)c1ccc(CCP(=O)(O)O)c(CC(N)C(=O)O)c1 (stereo not given) | – |
| 50 µM | 17 µM | CCc1ccc(CCP(=O)(O)O)c(CC(N)C(=O)O)c1 (stereo not given) | – |
| – | 67 µM | COc1ccc(CCP(=O)(O)O)c(CC(N)C(=O)O)c1 (stereo not given) | – |
| 167 µM | 68 µM | NC(Cc1cc(F)ccc1CCP(=O)(O)O)C(=O)O (stereo not given) | – |
| 39 µM | 12 µM | Cc1cc(C)c(CCP(=O)(O)O)c(CC(N)C(=O)O)c1 (stereo not given) | – |
| – | 10 µM | NC(Cc1cc(C(F)(F)F)ccc1CCP(=O)(O)O)C(=O)O (stereo not given) | – |
| 16 µM | 3.6 µM | NC(Cc1cc(I)ccc1CCP(=O)(O)O)C(=O)O (stereo not given) | – |
